Assay results from patent publication US20170233413A1, “SUBSTITUTED ANNULATED PYRIMIDINES AND USE THEREOF” (Bayer Pharma Aktiengesellschaft, priority 2014, published 2017).

Assays:
[1] = target: T1, recombinant guanylate cyclase reporter cell line (Rattus norvegicus, UniProt P19686+P20595); assay: Effect on a recombinant guanylate cyclase reporter cell line; type: cell-based; details: MEC = minimum effective concentration; in some cases means of individual determinations
T1 construct: expressed in transfected cells
T1 sequence (P19686 1-690): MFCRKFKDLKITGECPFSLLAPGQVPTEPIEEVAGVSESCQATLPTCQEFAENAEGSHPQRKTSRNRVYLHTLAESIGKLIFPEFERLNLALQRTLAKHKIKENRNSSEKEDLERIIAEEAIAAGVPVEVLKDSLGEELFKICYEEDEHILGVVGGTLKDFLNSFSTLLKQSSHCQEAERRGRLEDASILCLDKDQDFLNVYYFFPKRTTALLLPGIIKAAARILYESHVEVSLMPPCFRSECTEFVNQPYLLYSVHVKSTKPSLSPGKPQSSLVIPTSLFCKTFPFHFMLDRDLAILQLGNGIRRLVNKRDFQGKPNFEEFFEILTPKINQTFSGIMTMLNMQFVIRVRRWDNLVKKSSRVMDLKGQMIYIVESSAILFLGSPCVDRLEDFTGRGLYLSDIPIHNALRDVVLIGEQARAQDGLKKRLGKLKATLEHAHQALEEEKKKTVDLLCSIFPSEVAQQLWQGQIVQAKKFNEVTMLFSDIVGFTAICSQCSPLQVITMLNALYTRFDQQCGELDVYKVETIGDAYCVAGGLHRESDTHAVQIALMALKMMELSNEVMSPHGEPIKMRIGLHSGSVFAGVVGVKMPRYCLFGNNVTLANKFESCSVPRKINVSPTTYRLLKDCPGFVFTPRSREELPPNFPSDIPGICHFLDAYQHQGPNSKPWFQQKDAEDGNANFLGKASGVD
T1 sequence (P20595 1-619): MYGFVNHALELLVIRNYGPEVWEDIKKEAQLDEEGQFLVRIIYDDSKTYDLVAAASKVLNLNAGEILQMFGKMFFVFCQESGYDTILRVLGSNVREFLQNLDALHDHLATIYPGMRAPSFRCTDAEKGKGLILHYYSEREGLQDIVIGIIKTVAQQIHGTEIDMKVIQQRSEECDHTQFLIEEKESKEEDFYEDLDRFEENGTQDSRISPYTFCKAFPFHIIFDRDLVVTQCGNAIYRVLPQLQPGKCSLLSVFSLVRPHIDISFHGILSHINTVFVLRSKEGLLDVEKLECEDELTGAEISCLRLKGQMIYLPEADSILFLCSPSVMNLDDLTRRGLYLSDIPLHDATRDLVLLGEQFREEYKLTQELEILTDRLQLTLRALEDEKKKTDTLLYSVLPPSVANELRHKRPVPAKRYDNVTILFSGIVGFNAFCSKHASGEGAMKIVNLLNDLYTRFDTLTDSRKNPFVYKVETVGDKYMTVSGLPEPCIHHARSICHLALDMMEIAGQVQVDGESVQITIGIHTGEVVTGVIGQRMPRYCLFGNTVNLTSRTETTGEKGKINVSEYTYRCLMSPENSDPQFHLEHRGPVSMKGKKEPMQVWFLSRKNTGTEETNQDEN
Description: B-2. Effect on a Recombinant Guanylate Cyclase Reporter Cell Line
The cellular activity of the compounds of the invention is determined using a recombinant guanylate cyclase reporter cell line, as described in F. Wunder et al., Anal. Biochem. 2005, 339, 104-112. Representative values (MEC=minimum effective concentration) for the compounds of the invention are shown in the table below (Table 1B; in some cases as means of individual determinations): […]

[2] = target: T2, human phosphodiesterase 5 (PDE 5) (Homo sapiens, UniProt O76074); assay: Inhibition of human phosphodiesterase 5 (PDE 5); type: biochemical; details: PDE 5 preparation from human platelets; in some cases means of individual determinations
T2 construct: PDE 5 preparations are obtained from human platelets by disruption; from tissue; host or cells: human platelets
Description: B-3. Inhibition of Human Phosphodiesterase 5 (PDE 5)
PDE 5 preparations are obtained from human platelets by disruption (Microfluidizer®, 800 bar, 3 passes), followed by centrifugation (75 000 g, 60 min, 4° C.) and ion exchange chromatography of the supernatant on a Mono Q 10/10 column (linear sodium chloride gradient, elution with a 0.2-0.3M solution of sodium chloride in buffer (20 mM Hepes pH 7.2, 2 mM magnesium chloride). Fractions having PDE 5 activity are combined (PDE 5 preparation) and stored at −80° C.
To determine their in vitro action on human PDE 5, the test substances are dissolved in 100% DMSO and serially diluted. Typically, dilution series (1:3) from 200 μM to 0.091 μM are prepared (resulting final concentrations in the test: 4 μM to 0.0018 μM). In each case 2 μl of the diluted substance solutions are placed into the wells of microtitre plates (Isoplate-96/200W; Perkin Elmer). Subsequently, 50 μl of a dilution of the above-described PDE 5 preparation are added. The dilution of the PDE 5 preparation is chosen such that during the later incubation less than 70% of the substrate are converted (typical dilution: 1:100; dilution buffer: 50 mM tris/hydrochloric acid pH 7.5, 8.3 mM magnesium chloride, 1.7 mM EDTA, 0.2% BSA). The substrate, [8-^3H] cyclic guanosine-3′,5′-monophosphate (1 μCi/μl; Perkin Elmer), is diluted 1:2000 with assay buffer (50 mM tris/hydrochloric acid pH 7.5, 8.3 mM magnesium chloride, 1.7 mM EDTA) to a concentration of 0.0005 μCi/μl. By addition of 50 μl (0.025 μCi) of the diluted substrate, the enzyme reaction is finally started. The test mixtures are incubated at room temperature for 60 min and the reaction is stopped by adding 25 μl of a suspension of 18 mg/ml yttrium scintillation proximity beads in water (phosphodiesterase beads for SPA assays, RPNQ 0150, Perkin Elmer). The microtitre plates are sealed with a film and left to stand at room temperature for 60 min. Subsequently, the plates are analysed for 30 s per well in a Microbeta scintillation counter (Perkin Elmer). IC50 values are determined using the graphic plot of the substance concentration against percentage PDE 5 inhibition.

Structure (SMILES) | MEC [1] | IC50 [2]
CCC(=O)C(C)NC(=O)c1nc(-c2nn(Cc3ccccc3F)c3ncccc23)nc2c1C(C)(C)C(=O)N2 (racemic) [Example 66, rac-2-[1-(2-fluorobenzyl)-1H-pyrazolo[3,4-b]pyridin-3-yl]-5,5-dimethyl-6-oxo-N-(3-oxopentan-2-yl)-6,7-dihydro-5H-pyrrolo[2,3-d]pyrimidine-4-carboxamide] | 0.3 µM | 0.087 µM
CC(N)(CNC(=O)c1nc(-c2nn(Cc3ncccc3F)c3ncc(F)cc23)nc2c1C(C)(C)C(=O)N2)CC(F)F (single isomer, unassigned) [Example 56] | 3 µM | 0.12 µM
CN(C(=O)c1nc(-c2nn(Cc3ccccc3F)c3cc(Cl)ccc23)nc2c1C(C)(C)C(=O)N2)C1CC1 [Example 46] | 0.03 µM | 1 µM
CC(C)(N)CNC(=O)c1nc(-c2nn(Cc3ccccc3F)c3ncc(F)cc23)nc2c1C(C)(C)C(=O)N2 [Example 30] | 1 µM | 0.31 µM
Cc1nc2c(cc1F)c(-c1nc3c(c(C(N)=O)n1)C(C)(C)C(=O)N3)nn2Cc1c(F)ccc(F)c1F [Example 6, 2-[5-Fluoro-6-methyl-1-(2,3,6-trifluorobenzyl)-1H-pyrazolo[3,4-b]pyridin-3-yl]-5,5-dimethyl-6-oxo-6,7-dihydro-5H-pyrrolo[2,3-d]pyrimidine-4-carboxamide] | 0.2 µM | 0.14 µM
Cc1nc2c(cc1F)c(-c1nc3c(c(C(N)=O)n1)C(C)(C)C(=O)N3)nn2Cc1cccc(F)c1F [Example 4, 2-[1-(2,3-Difluorobenzyl)-5-fluoro-6-methyl-1H-pyrazolo[3,4-b]pyridin-3-yl]-5,5-dimethyl-6-oxo-6,7-dihydro-5H-pyrrolo[2,3-d]pyrimidine-4-carboxamide] | 0.2 µM | 0.11 µM
CC1(C)C(=O)Nc2nc(-c3nn(Cc4ccccc4F)c4ncc(F)cc34)nc(C(=O)NC3(C#N)CC3)c21 [Example 31] | 0.1 µM | 0.01 µM
CC1(C)C(=O)Nc2nc(-c3nn(Cc4ccccc4F)c4cc(Cl)ccc34)nc(C(N)=O)c21 [Example 3, 2-[6-Chloro-1-(2-fluorobenzyl)-1H-indazol-3-yl]-5,5-dimethyl-6-oxo-6,7-dihydro-5H-pyrrolo[2,3-d]pyrimidine-4-carboxamide] | 0.03 µM | 0.1 µM
CC1(C)C(=O)Nc2nc(-c3nn(Cc4ccccc4F)c4ncc(F)cc34)nc(C(=O)NC3CC3)c21 [Example 28] | 0.03 µM | 0.0052 µM
CC1(C)C(=O)Nc2nc(-c3nn(Cc4ccccc4F)c4ncccc34)nc(C(=O)NCCSC(F)(F)F)c21 [Example 73, 2-[1-(2-fluorobenzyl)-1H-pyrazolo[3,4-b]pyridin-3-yl]-5,5-dimethyl-6-oxo-N-{2-[(trifluoromethyl)sulfanyl]ethyl}-6,7-dihydro-5H-pyrrolo[2,3-d]pyrimidine-4-carboxamide] | 0.3 µM | 0.052 µM
Cc1nc2c(cc1F)c(-c1nc3c(c(C(N)=O)n1)C(C)(C(F)(F)F)C(=O)N3)nn2Cc1cccc(F)c1F (single isomer, unassigned; ent-2) [Example 11, ent-2-[1-(2,3-Difluorobenzyl)-5-fluoro-6-methyl-1H-pyrazolo[3,4-b]pyridin-3-yl]-5-methyl-6-oxo-5-(trifluoromethyl)-6,7-dihydro-5H-pyrrolo[2,3-d]pyrimidine-4-carboxamide (enantiomer B)] | 0.1 µM | 0.091 µM
C[C@H](NC(=O)c1nc(-c2nn(Cc3ccccc3F)c3ncccc23)nc2c1C(C)(C)C(=O)N2)C(N)=O [Example 80, N-[(2S)-1-amino-1-oxopropan-2-yl]-2-[1-(2-fluorobenzyl)-1H-pyrazolo[3,4-b]pyridin-3-yl]-5,5-dimethyl-6-oxo-6,7-dihydro-5H-pyrrolo[2,3-d]pyrimidine-4-carboxamide] | 1 µM | 0.023 µM

Next, values leading:

MEC [1] | IC50 [2] | Structure (SMILES)
0.3 µM | 0.015 µM | CC1(C)C(=O)Nc2nc(-c3nn(Cc4ccccc4F)c4ncccc34)nc(C(=O)NCCO)c21 [Example 114, 2-[1-(2-fluorobenzyl)-1H-pyrazolo[3,4-b]pyridin-3-yl]-N-(2-hydroxyethyl)-5,5-dimethyl-6-oxo-6,7-dihydro-5H-pyrrolo[2,3-d]pyrimidine-4-carboxamide]
0.1 µM | 0.041 µM | CC1(C)C(=O)Nc2nc(-c3nn(Cc4ccccc4F)c4ncccc34)nc(C(=O)NCc3ccccc3)c21 [Example 115, N-benzyl-2-[1-(2-fluorobenzyl)-1H-pyrazolo[3,4-b]pyridin-3-yl]-5,5-dimethyl-6-oxo-6,7-dihydro-5H-pyrrolo[2,3-d]pyrimidine-4-carboxamide]
0.3 µM | 0.013 µM | CC[C@H](C)NC(=O)c1nc(-c2nn(Cc3ccccc3F)c3ncccc23)nc2c1C(C)(C)C(=O)N2 [Example 134, N-[(2S)-butan-2-yl]-2-[1-(2-fluorobenzyl)-1H-pyrazolo[3,4-b]pyridin-3-yl]-5,5-dimethyl-6-oxo-6,7-dihydro-5H-pyrrolo[2,3-d]pyrimidine-4-carboxamide]
0.1 µM | 0.22 µM | CN(CCO)C(=O)c1nc(-c2nn(Cc3ccccc3F)c3ncccc23)nc2c1C(C)(C)C(=O)N2 [Example 120, 2-[1-(2-fluorobenzyl)-1H-pyrazolo[3,4-b]pyridin-3-yl]-N-(2-hydroxyethyl)-N,5,5-trimethyl-6-oxo-6,7-dihydro-5H-pyrrolo[2,3-d]pyrimidine-4-carboxamide]
0.03 µM | 0.062 µM | CC1(C)C(=O)Nc2nc(-c3nn(Cc4ccccc4F)c4ncccc34)nc(C(=O)NCCOCC(F)(F)F)c21 [Example 96, 2-[1-(2-fluorobenzyl)-1H-pyrazolo[3,4-b]pyridin-3-yl]-5,5-dimethyl-6-oxo-N-[2-(2,2,2-trifluoroethoxy)ethyl]-6,7-dihydro-5H-pyrrolo[2,3-d]pyrimidine-4-carboxamide]
0.1 µM | 0.021 µM | CC1(C)C(=O)Nc2nc(-c3nn(Cc4ccccc4F)c4ncccc34)nc(C(=O)NCc3ccncc3)c21 [Example 118, 2-[1-(2-fluorobenzyl)-1H-pyrazolo[3,4-b]pyridin-3-yl]-5,5-dimethyl-6-oxo-N-(pyridin-4-ylmethyl)-6,7-dihydro-5H-pyrrolo[2,3-d]pyrimidine-4-carboxamide]
